Holding throughout (type): ADME, organism-based
The nature of data set [1]: (§1) Half life in Wistar rat at 10 mg/kg. The arrangement: dose 10 mg/kg. To be noted: Wistar, in vivo.
The nature of data set [2]: AUC in Wistar rat at 10 mg/kg, po. The arrangement: dose 10 mg/kg, route oral. To be noted: plasma.
The nature of data set [3]: Cmax in Wistar rat at 10 mg/kg, po. Also noted: dose 10 mg/kg, route oral. The note with it: in vivo.
Data set [4] is described as follows: Oral bioavailability in Wistar rat at 10 mg/kg, po. To be noted: in vivo.
The next data set relates to Rattus norvegicus. The description is as §1. Also noted: dose 10 mg/kg. The note with it: in vivo.

On to `COc1cccc(C(=O)N[C@@H](CC(C)(C)C)C(=O)N[C@@H](CC(=O)O)CN2CCc3cc(F)ccc32)c1`, for which the half-life (commonly how long it takes for the measured level to halve) in data set [1] is 33.6 min. Also, the AUC (in general, concentration integrated over time) in data set [2] is 100 ng·h/mL. In addition, the Cmax (usually the highest concentration seen after dosing) in data set [3] turned out to be 45 nM. Moreover, the bioavailability (as a rule, the share of a dose that reaches the circulation, judged against a reference dose that is usually intravenous) in data set [4] is 2%.
On to `CCOC(=O)C[C@@H](CN1CCc2cc(F)ccc21)NC(=O)[C@H](CCC1CCCCC1)NC(=O)c1cccc(OC)c1`, for which, in the data set with Rattus norvegicus, the T1/2 result was “Not Active”. For the same compound, the AUC in data set [2] is 308 ng·h/mL. In data set [3], this compound came in with a peak concentration (Cmax) of 293 nM. Besides, the bioavailability in data set [4] was 8%.
